For data set [1], the species on record is Homo sapiens. Kind of data set: Inhibition of Ezh1 (Ezh1/EED/SUZ12/AEBP2/RbAP48) (unknown origin) at <5 uM using histone H3 peptide (21 to 44) as substrate in presence of co-factor SAM by LC-MS analysis.
For data set [2], the system named is MV4-11. Description: Antitumor activity against human MV4-11 cells xenografted in C57BL/6 mouse assessed as reduction in tumor growth at <6 fold 300 mg/kg, po relative to control. The format is functional. (In general: A xenograft is tissue or cells of one species grown in another, often human tumour cells in immunodeficient mice.)
Data set [3] deals with T1, Histone-lysine N-methyltransferase EHMT2 (Homo sapiens) (UniProt Q96KQ7).
T1 sequence (whole entry): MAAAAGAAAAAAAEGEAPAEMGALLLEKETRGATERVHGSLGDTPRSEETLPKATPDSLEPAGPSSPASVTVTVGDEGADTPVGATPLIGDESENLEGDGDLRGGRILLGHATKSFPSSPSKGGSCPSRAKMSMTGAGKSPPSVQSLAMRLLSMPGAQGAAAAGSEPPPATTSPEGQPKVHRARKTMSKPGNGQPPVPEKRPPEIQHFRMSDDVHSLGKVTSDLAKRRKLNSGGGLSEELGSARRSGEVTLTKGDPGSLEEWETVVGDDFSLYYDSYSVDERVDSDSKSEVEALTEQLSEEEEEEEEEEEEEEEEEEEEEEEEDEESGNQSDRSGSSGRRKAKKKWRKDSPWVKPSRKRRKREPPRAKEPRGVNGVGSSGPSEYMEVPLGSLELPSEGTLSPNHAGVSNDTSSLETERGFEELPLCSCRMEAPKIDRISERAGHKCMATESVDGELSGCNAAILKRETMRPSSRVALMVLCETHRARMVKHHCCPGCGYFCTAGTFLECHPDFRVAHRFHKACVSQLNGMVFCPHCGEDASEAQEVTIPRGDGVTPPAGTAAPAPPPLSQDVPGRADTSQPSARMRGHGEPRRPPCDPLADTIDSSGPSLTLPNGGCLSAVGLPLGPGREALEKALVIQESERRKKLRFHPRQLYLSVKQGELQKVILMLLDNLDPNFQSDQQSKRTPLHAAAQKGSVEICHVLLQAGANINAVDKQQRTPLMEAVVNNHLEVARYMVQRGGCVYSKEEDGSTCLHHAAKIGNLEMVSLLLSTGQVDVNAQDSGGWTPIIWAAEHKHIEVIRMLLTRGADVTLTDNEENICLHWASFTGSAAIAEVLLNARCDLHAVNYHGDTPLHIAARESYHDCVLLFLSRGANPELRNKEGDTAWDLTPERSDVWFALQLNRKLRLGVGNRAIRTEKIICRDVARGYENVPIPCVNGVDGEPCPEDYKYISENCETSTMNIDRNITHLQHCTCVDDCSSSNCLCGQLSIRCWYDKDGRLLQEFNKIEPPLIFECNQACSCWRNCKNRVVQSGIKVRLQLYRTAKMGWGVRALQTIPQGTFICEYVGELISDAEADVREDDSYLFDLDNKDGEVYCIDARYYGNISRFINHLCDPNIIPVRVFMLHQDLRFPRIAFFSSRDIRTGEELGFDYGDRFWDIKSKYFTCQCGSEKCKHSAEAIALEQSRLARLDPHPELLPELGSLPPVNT
Description: Inhibition of G9a (unknown origin) at <5 uM using histone H3 peptide (1 to 21) as substrate in presence of co-factor SAM by LC-MS analysis.

The species entered for data set [4] is Homo sapiens. Description: Inhibition of PRC2 complex of human full-length N-terminal FLAG-tagged EZH2/EED/SUZ12/AEBP2/RbAp48 expressed in baculovirus expression system at <5 uM using histone H3 peptide (21 to 44) as substrate in presence of co-factor SAM by LC-MS analysis.
The target of data set [5] is T2, Histone-lysine N-methyltransferase SETD7 (Homo sapiens) (UniProt Q8WTS6).
T2 sequence (whole entry): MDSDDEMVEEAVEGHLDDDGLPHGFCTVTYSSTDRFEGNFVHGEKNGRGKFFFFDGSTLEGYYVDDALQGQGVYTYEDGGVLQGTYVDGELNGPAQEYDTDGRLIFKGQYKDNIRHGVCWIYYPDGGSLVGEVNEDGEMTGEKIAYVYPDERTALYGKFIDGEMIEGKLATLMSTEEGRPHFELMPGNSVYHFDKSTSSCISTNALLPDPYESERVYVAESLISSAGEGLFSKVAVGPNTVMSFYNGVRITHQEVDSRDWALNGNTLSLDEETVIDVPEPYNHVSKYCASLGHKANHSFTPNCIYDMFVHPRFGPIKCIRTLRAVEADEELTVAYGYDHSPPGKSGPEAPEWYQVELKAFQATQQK
Kind of data set: Inhibition of Set7/9 (unknown origin) at <5 uM using H3 (1 to 21) as substrate in presence of co-factor SAM by LC-MS analysis.

Data set [6] concerns the target T3, Histone-lysine N-methyltransferase, H3 lysine-79 specific (Homo sapiens, UniProt Q8TEK3). Description: Binding affinity to DOT1l (unknown origin) assessed as dissociation half life by SPR assay.
Target sequence in this assay (Q8TEK3 whole entry, looked up): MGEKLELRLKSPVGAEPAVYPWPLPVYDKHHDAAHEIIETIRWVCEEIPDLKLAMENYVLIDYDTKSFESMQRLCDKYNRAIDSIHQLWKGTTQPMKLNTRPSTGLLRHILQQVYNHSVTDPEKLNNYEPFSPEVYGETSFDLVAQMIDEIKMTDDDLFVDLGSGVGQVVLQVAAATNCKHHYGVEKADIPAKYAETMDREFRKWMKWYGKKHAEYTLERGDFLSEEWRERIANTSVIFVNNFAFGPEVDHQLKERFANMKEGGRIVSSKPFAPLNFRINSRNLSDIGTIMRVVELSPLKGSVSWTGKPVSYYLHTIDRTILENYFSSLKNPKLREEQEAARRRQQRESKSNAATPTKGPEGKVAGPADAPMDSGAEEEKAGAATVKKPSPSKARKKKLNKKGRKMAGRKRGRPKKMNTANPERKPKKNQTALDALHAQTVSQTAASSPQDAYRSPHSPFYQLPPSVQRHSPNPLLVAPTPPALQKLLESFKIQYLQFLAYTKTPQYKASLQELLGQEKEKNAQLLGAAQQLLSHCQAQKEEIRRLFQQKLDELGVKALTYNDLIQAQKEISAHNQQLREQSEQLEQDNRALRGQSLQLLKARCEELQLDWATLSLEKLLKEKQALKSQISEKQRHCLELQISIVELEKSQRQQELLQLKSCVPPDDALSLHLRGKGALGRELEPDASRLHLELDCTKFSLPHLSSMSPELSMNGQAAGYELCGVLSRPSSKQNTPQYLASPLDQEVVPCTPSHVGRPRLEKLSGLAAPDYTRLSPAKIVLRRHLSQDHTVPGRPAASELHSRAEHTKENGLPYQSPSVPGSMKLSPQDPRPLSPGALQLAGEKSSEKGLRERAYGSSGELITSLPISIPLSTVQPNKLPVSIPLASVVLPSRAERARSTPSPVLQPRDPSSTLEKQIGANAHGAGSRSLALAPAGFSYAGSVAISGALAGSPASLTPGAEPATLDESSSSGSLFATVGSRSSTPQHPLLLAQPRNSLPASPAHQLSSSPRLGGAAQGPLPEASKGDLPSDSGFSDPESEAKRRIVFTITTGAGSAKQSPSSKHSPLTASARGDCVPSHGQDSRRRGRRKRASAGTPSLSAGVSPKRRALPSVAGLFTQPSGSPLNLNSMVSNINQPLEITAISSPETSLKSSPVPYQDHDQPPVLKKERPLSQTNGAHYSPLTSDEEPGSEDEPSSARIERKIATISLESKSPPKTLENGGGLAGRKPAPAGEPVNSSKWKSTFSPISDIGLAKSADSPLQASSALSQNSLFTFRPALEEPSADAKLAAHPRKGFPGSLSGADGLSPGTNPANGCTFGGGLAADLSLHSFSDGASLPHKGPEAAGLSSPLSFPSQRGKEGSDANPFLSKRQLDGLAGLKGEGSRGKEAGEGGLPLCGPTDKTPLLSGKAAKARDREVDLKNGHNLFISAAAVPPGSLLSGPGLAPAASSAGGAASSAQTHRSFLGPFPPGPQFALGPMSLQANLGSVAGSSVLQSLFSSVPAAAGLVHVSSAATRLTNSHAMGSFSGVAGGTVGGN
The target in data set [7] is Histone-lysine N-methyltransferase SETD2 (Homo sapiens) (UniProt Q9BYW2). Description: Inhibition of SETD2 (unknown origin) at <5 uM using histone H3 peptide (21 to 44) as substrate in presence of co-factor SAM by LC-MS analysis.
Data set [8] is described as follows: Drug concentration in C57BL/6 mouse blood at 300 mg/kg, po administered daily for 7 days. As to conditions: in vivo, 168 h. The format is ADME, organism-based.
Data set [9] is described as follows: Drug concentration in C57BL/6 mouse blood at 300 mg/kg, po measured after 24 hrs. In kind it is ADME, organism-based. As to conditions: read-out: Drug uptake.
Data set [10] addresses T3, Histone-lysine N-methyltransferase, H3 lysine-79 specific. Kind of data set: Inhibition of 0.05 nM DOT1L (2 to 416 residues) (unknown origin) using biotinylated nucleosome as substrate and [3H]SAM as co-factor preincubated for 30 mins followed by substrate and cofactor addition and measured after 180 mins by scintillation proximity assay. (In a scintillation proximity assay essentially only radioactivity close to the scintillant gives light.)
Target sequence in this assay (Q8TEK3 whole entry): as the sequence (Q8TEK3 whole entry, looked up) above

In data set [11] the target is N-lysine methyltransferase SMYD2 (Homo sapiens) (UniProt Q9NRG4). Description: Inhibition of SmyD2 (unknown origin) at <5 uM using p53 (363 to 393 residues) as substrate in presence of co-factor SAM by LC-MS analysis.
The target in data set [12] is Histone-lysine N-methyltransferase SUV39H2 (Homo sapiens) (UniProt Q9H5I1). Description: Inhibition of Suv39H2 (unknown origin) at <5 uM using histone H3 peptide (1 to 21) as substrate in presence of co-factor SAM by LC-MS analysis.

1 molecule from ChEMBL document CHEMBL4406923, “New Potent DOT1L Inhibitors for in Vivo Evaluation in Mouse” (ACS Med Chem Lett, 2019) can be followed below.

Activity calls are given as the source filed them. No cut-off for these calls is given here.

Chain of N-lysine methyltransferase SMYD2 (Homo sapiens) (Q9NRG4 whole entry, the tested form may be a part): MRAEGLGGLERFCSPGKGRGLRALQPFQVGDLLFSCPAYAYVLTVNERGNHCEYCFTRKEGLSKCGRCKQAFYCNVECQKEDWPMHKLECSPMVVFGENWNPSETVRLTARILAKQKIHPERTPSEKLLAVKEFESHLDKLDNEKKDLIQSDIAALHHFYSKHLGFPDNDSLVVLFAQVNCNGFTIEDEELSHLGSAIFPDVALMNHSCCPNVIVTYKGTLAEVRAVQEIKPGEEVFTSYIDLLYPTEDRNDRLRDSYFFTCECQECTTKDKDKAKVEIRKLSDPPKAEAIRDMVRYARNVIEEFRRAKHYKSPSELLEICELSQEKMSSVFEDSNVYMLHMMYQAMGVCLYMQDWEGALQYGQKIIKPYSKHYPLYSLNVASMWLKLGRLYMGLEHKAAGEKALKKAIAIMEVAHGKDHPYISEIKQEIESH
Chain of Histone-lysine N-methyltransferase SUV39H2 (Homo sapiens) (Q9H5I1 whole entry): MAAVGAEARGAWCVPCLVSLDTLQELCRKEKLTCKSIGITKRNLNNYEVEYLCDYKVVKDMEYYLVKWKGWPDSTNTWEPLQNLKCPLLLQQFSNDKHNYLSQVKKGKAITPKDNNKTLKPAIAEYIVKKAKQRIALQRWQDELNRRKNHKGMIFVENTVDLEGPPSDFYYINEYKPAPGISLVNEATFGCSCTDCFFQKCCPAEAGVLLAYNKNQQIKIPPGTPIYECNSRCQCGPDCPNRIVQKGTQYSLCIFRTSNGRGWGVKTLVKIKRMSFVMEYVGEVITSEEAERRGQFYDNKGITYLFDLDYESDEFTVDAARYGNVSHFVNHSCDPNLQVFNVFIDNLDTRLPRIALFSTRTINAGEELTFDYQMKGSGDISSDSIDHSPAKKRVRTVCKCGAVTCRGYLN
Chain of Histone-lysine N-methyltransferase SETD2 (Homo sapiens) (Q9BYW2 whole entry): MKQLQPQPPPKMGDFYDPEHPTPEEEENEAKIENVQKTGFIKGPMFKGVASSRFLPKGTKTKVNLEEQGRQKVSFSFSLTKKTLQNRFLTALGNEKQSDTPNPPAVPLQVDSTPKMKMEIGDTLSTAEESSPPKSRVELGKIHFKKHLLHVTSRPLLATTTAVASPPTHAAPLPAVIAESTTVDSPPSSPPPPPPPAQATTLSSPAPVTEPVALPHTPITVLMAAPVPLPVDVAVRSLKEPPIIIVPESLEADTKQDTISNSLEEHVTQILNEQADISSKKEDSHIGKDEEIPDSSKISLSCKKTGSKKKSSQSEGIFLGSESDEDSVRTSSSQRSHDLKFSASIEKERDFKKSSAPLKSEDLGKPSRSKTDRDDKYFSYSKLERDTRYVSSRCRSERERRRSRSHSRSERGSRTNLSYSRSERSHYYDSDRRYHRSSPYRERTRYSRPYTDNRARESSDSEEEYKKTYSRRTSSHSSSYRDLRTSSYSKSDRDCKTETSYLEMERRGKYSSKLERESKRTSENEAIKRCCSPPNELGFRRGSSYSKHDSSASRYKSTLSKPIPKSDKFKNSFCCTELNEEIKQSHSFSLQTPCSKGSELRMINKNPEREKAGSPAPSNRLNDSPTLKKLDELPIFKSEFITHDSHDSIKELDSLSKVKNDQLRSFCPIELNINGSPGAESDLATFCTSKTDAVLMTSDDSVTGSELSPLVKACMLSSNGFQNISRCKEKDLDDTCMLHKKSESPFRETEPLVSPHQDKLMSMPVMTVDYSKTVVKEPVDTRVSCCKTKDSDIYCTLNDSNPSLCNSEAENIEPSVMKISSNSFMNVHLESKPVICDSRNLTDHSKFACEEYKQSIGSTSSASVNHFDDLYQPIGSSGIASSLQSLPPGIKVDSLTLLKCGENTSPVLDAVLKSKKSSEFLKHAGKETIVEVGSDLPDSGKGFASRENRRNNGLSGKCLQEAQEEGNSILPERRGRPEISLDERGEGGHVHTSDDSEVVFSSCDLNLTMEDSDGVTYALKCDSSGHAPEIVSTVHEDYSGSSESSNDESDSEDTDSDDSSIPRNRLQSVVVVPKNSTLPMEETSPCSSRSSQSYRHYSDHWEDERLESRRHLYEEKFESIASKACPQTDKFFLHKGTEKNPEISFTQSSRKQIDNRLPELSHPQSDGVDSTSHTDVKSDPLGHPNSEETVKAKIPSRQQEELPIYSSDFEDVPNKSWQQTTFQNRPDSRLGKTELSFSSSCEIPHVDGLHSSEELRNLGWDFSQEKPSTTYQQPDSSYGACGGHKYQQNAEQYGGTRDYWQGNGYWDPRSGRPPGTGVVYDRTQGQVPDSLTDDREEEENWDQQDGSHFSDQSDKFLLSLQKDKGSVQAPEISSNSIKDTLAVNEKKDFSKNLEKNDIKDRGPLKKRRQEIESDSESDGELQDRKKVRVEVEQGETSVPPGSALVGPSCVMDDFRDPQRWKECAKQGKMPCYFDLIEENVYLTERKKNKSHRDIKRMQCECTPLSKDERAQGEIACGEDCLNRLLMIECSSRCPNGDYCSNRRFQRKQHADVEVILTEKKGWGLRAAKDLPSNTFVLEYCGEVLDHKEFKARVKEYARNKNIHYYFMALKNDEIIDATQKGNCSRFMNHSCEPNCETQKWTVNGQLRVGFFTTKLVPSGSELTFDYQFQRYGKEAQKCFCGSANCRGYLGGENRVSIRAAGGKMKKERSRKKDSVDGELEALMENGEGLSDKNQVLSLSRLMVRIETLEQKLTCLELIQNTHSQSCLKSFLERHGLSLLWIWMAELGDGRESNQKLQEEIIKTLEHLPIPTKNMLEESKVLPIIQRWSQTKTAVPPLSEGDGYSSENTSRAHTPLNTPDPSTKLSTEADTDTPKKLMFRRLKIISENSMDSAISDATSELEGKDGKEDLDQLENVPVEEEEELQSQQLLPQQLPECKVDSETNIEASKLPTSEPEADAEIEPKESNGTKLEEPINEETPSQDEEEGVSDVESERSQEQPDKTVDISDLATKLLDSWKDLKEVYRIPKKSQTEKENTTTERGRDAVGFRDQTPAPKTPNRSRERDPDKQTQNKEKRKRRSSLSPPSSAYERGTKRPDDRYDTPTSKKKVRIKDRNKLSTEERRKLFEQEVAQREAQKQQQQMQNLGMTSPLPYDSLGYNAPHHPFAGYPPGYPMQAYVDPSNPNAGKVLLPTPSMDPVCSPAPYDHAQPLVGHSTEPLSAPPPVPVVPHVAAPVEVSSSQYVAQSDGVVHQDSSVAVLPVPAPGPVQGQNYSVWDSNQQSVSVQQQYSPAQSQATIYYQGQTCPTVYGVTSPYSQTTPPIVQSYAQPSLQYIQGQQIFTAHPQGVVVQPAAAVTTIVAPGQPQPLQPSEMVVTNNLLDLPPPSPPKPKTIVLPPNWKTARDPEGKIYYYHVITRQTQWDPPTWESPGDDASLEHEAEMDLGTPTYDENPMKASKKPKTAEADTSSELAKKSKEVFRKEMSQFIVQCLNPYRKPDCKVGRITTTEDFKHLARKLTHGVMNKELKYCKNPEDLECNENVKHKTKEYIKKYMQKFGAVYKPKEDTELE

As for `COc1nc(Nc2cc(S(C)(=O)=O)ccc2N[C@@H](c2cccc3c2OC(F)(F)O3)c2ncccc2Cl)nc(N2CCNCC2)n1`, the inhibition entry in data set [1], in data set [3], in [4], in data set [5], in [7] and in [11] was “inactive” throughout. In addition, the inhibition entry in data set [12] was “inactive”. Also, in data set [2], the “fold change (FC)” value is listed as below 0.5. In data set [6], the T1/2 is above 5 h. Also, the Drug uptake result in data set [8] was “Active”. In [9], the concentration at 24 h was 4 to 8 µM. Moreover, in data set [10], the IC50 (as a rule, the concentration needed to halve the response being measured) came to 0.11 nM.
